Assay results taken from publication PMC2584942, “Phase I dose escalation study of telatinib (BAY 57-9352) in patients with advanced solid tumours” (British Journal of Cancer, 2008).

Experiments:
[1] = Phase I dose escalation: study drug-related adverse events (NCI CTC v2.0), DLT, MTD; type: in vivo
Experimental: Administration of telatinib was continued until an unacceptable toxicity, disease progression or death occurred or the consent was withdrawn. At start of the study, only a solution formulation was available. The formulation as tablet was introduced into the study after first pharmacokinetic results became available. Based on pharmacokinetic data, OD, two times daily (BID), and three times daily schedules were evaluated.
Three patients were initially enroled at each dose level. […] If any patient experienced a DLT, three additional patients were enroled at that dose level. If at least two out of six patients experienced a DLT, dose escalation had to be stopped and that dose was to be declared the toxic dose. The next lower dose level was defined as the MTD. […] In the course of the study the protocol was amended so that the onset of CTC grade 3 hypertension was only considered to be a DLT if the hypertension turned out to be refractory to standard antihypertensive treatment.
Adverse events were assessed at the end of each cycle and graded according to the National Cancer Institute Common Toxicity Criteria (NCI CTC), v2.0 ([Trotti et al, 2000]).
History, physical examinations, haematological and biochemical laboratory evaluations were performed at screening, on days 1, 7 and 14 of cycle 1 and on day 1 of subsequent cycles. Baseline objective tumour measurements were performed within 4 weeks prior to study treatment. Lesions at all disease sites were categorised as either measurable or nonmeasurable. Indicator lesions were selected and monitored throughout the study by the same assessor and using the same technique. Tumour response was evaluated according to the RECIST ([Therasse et al, 2000]).

DLD-1 colon carcinoma = system: DLD-1 colon carcinoma; parameters: method as in printed; conditions: DLD-1 colon carcinoma model; background statement, ref not given; cited from earlier work
[2] = continuous dosing 600 mg BID (N=7)
[3] = continuous dosing 900 mg BID (N=6)
[4] = continuous dosing 1200 mg BID (N=7)
[5] = continuous dosing 1500 mg BID (N=6)
[6] = noncontinuous dosing 600 mg BID (N=6)
[7] = noncontinuous dosing 900 mg BID (N=6)
[8] = noncontinuous dosing 1500 mg BID (N=6)
[9] = noncontinuous dosing 75–300 mg BID (N=27)

CNC(=O)c1cc(COc2nnc(Nc3ccc(Cl)cc3)c3ccoc23)ccn1 [telatinib]
Patients with at least one study drug-related adverse event, worst CTC grade 1–2 ([1]; all patients N=71): 21% | Patients with at least one study drug-related adverse event, worst CTC grade 3 ([1]; all patients N=71): 25% | Study drug-related adverse events of CTC grades 4 or 5 ([1]; all patients N=71): no study drug-related adverse events of CTC grades 4 or 5 | Diarrhoea, study drug-related, CTC grade 3 ([1]; all patients N=71 (with and without colostomy)): 7% | Patients with serious study drug-related adverse events ([1]; all patients, diarrhoea, hypertension, hand–foot skin reaction and dehydration): five | Incidence of patients with study drug-related adverse events, worst CTC grades 1–2: Any event [1, 2]: 1 (14) N(%) | Incidence of patients with study drug-related adverse events, worst CTC grades 1–2: Diarrhoea, patients without colostomy [1, 2]: 1 (14) N(%) | Incidence of patients with study drug-related adverse events, worst CTC grade 3: Any event [1, 3]: 3 (50) N(%) | Incidence of patients with study drug-related adverse events, worst CTC grade 3: Dehydration [1, 3]: 1 (17) N(%) | Incidence of patients with study drug-related adverse events, worst CTC grade 3: Diarrhoea, patients with colostomy [1, 3]: 1 (17) N(%) | Incidence of patients with study drug-related adverse events, worst CTC grade 3: Diarrhoea, patients without colostomy [1, 3]: 1 (17) N(%) | Incidence of patients with study drug-related adverse events, worst CTC grade 3: Hand–foot skin reaction [1, 3]: 1 (17) N(%) | Incidence of patients with study drug-related adverse events, worst CTC grade 3: Hypertension [1, 3]: 2 (33) N(%) | Incidence of patients with study drug-related adverse events, worst CTC grade 3: Rash/desquamation [1, 3]: 1 (17) N(%) | Incidence of patients with study drug-related adverse events, worst CTC grades 1–2: Alopecia [1, 3]: 1 (17) N(%) | Incidence of patients with study drug-related adverse events, worst CTC grades 1–2: Any event [1, 3]: 2 (33) N(%) | Incidence of patients with study drug-related adverse events, worst CTC grades 1–2: Nausea [1, 3]: 1 (17) N(%) | Incidence of patients with study drug-related adverse events, worst CTC grades 1–2: Voice changes/stridor/larynx [1, 3]: 1 (17) N(%) | Incidence of patients with study drug-related adverse events, worst CTC grade 3: Abdominal pain or cramping [1, 4]: 1 (14) N(%) | Incidence of patients with study drug-related adverse events, worst CTC grade 3: Any event [1, 4]: 5 (71) N(%) | Incidence of patients with study drug-related adverse events, worst CTC grade 3: Diarrhoea, patients without colostomy [1, 4]: 2 (29) N(%) | Incidence of patients with study drug-related adverse events, worst CTC grade 3: Hypertension [1, 4]: 5 (71) N(%) | Incidence of patients with study drug-related adverse events, worst CTC grades 1–2: Any event [1, 4]: 1 (14) N(%) | Incidence of patients with study drug-related adverse events, worst CTC grades 1–2: Flatulence [1, 4]: 1 (14) N(%) | Incidence of patients with study drug-related adverse events, worst CTC grades 1–2: Any event [1, 5]: 2 (33) N(%) | Incidence of patients with study drug-related adverse events, worst CTC grades 1–2: Diarrhoea, patients without colostomy [1, 5]: 2 (33) N(%) | Incidence of patients with study drug-related adverse events, worst CTC grades 1–2: Flatulence [1, 5]: 1 (17) N(%) | Incidence of patients with study drug-related adverse events, worst CTC grades 1–2: Hypertension [1, 5]: 1 (17) N(%) | Incidence of patients with study drug-related adverse events, worst CTC grades 1–2: Nausea [1, 5]: 1 (17) N(%) | Incidence of patients with study drug-related adverse events, worst CTC grades 1–2: Vomiting [1, 5]: 1 (17) N(%) | Maximum-tolerated dose (MTD) ([1]; continuous dosing, MTD not reached up to highest dose): > 1500 mg BID | diastolic blood pressure, change from baseline ([1]; cycle 1, day 14 vs baseline): increase | Patients with diarrhoea leading to dose reduction or interruption ([1]; dose levels of 900 mg BID or higher): four | Patients with dose-limiting toxicities ([1]; grade 3 hypertension refractory to standard treatment, at 300 and 1500 mg BID noncontinuous dosing): two | Maximum-tolerated dose (MTD) ([1]; human, in vivo): > 1500 mg BID | Incidence of patients with study drug-related adverse events, worst CTC grade 3: Any event [1, 6]: 3 (50) N(%) | Incidence of patients with study drug-related adverse events, worst CTC grade 3: Hypertension [1, 6]: 3 (50) N(%) | Incidence of patients with study drug-related adverse events, worst CTC grades 1–2: Anorexia [1, 6]: 1 (17) N(%) | Incidence of patients with study drug-related adverse events, worst CTC grades 1–2: Any event [1, 6]: 2 (33) N(%) | Incidence of patients with study drug-related adverse events, worst CTC grades 1–2: Fatigue [1, 6]: 2 (33) N(%) | Incidence of patients with study drug-related adverse events, worst CTC grades 1–2: Voice changes/stridor/larynx [1, 6]: 2 (33) N(%) | Incidence of patients with study drug-related adverse events, worst CTC grade 3: Any event [1, 7]: 2 (33) N(%) | Incidence of patients with study drug-related adverse events, worst CTC grade 3: Hypertension [1, 7]: 2 (33) N(%) | Incidence of patients with study drug-related adverse events, worst CTC grades 1–2: Anorexia [1, 7]: 1 (17) N(%) | Incidence of patients with study drug-related adverse events, worst CTC grades 1–2: Any event [1, 7]: 3 (50) N(%) | Incidence of patients with study drug-related adverse events, worst CTC grades 1–2: Hypertension [1, 7]: 1 (17) N(%) | Incidence of patients with study drug-related adverse events, worst CTC grades 1–2: Voice changes/stridor/larynx [1, 7]: 2 (33) N(%) | Incidence of patients with study drug-related adverse events, worst CTC grade 3: Abdominal pain or cramping [1, 8]: 1 (17) N(%) | Incidence of patients with study drug-related adverse events, worst CTC grade 3: Any event [1, 8]: 4 (67) N(%) | Incidence of patients with study drug-related adverse events, worst CTC grade 3: Diarrhoea, patients without colostomy [1, 8]: 1 (17) N(%) | Incidence of patients with study drug-related adverse events, worst CTC grade 3: Hypertension [1, 8]: 3 (50) N(%) | Incidence of patients with study drug-related adverse events, worst CTC grades 1–2: Anorexia [1, 8]: 2 (33) N(%) | Incidence of patients with study drug-related adverse events, worst CTC grades 1–2: Any event [1, 8]: 2 (33) N(%) | Incidence of patients with study drug-related adverse events, worst CTC grades 1–2: Diarrhoea, patients without colostomy [1, 8]: 1 (17) N(%) | Incidence of patients with study drug-related adverse events, worst CTC grades 1–2: Hypertension [1, 8]: 1 (17) N(%) | Incidence of patients with study drug-related adverse events, worst CTC grades 1–2: Nausea [1, 8]: 1 (17) N(%) | Incidence of patients with study drug-related adverse events, worst CTC grades 1–2: Vomiting [1, 8]: 1 (17) N(%) | Incidence of patients with study drug-related adverse events, worst CTC grade 3: Any event [1, 9]: 1 (4) N(%) | Incidence of patients with study drug-related adverse events, worst CTC grade 3: Hypertension [1, 9]: 1 (4) N(%) | Incidence of patients with study drug-related adverse events, worst CTC grades 1–2: Alopecia [1, 9]: 1 (4) N(%) | Incidence of patients with study drug-related adverse events, worst CTC grades 1–2: Anorexia [1, 9]: 1 (4) N(%) | Incidence of patients with study drug-related adverse events, worst CTC grades 1–2: Any event [1, 9]: 2 (7) N(%) | tumour growth in vivo (DLD-1 colon carcinoma): potent, dose-dependent reduction in tumour growth
